Measurements: patent US12421225B2, “Heteroaromatic amide derivative and medicament containing the same” (KAKEN PHARMACEUTICAL CO., LTD., priority 2018, dated 2025)

Target: human Nav1.7 (Homo sapiens (Human), UniProt Q15858)
Experiment: Human Nav1.7 inhibitory activity evaluation (automated patch clamp QPatch16X, HEK293A cells stably expressing human Nav1.7 and human Navβ1)
Assay type: cell-based
Description: Test Example 1: Human Nav1.7 Inhibitory Activity Evaluation
A cell line in which human Nav1.7 and human Navβ1 subunits were stably expressed in HEK293A cells was used. Dulbecco's Modified Eagle Medium (DMEM) supplemeted with 10% fetal bovine serum, 600 μg/ml geneticin, and 2 μg/ml blasticidin S were used as culture medium under the conditions of 37° C. and 5% CO2 in T175 flasks to carry out culturing. When 60-80% confluence was reached, the cells were detached and a cell suspension of about 0.5-5.0×10^6 cells/mL was prepared. The amount of current through human Nav1.7 was recorded using a fully automatic patch clamp device QPatch16X (Sophion Biosciences) at room temperature. As the extracellular solution, the solution of 145 mM NaCl, 4 mM KCl, 1 mM MgCl2, 2 mM CaCl2, 10 mM Glucose, 10 mM 4-(2-hydroxyethyl)-1-piperazine ethanesulfonic acid (HEPES) at pH 7.4 was used. As the intracellular solution, the solution of 135 mM CsF, ⅕ mM glycol ether diaminetetraacetic acid (EGTA)/CsOH, 10 mM HEPES, 10 mM NaCl at pH 7.3 was used. The test compounds were dissolved in dimethyl sulfoxide (DMSO) and diluted with the extracellular solution to attain the DMSO concentration of 0.1% at the time of assay.
The current response was obtained at a sampling frequency of 25 kHz, and noise was removed with a 3 kHz low-pass filter. The holding potential was −100 mV. Correction of the leakage current was carried out by applying a step pulse of −120 mV before the test pulse. In order to investigate inhibitory action of the test compound, the following test pulse was given: Namely, after depolarizing pulse of −10 mV was applied for 50 milliseconds, it was fixed at −120 mV for 500 milliseconds; a potential at which about 30-40% of the channel was inactivated was maintained for 15 seconds, then fixed again at −120 mV for 100 milliseconds, and finally a −10 mV depolarization pulse was given for 50 milliseconds. Test pulses were given before and after the test compound addition.
The inhibitory activity of the test compound was determined based on the amount of inward current generated by the second depolarization pulse, and the 50% inhibitory concentration (IC50) was calculated from the concentration-response curve.

[1] = human Nav1.7, automated patch clamp
[2] = HEK293A cells stably expressing human Nav1.7 and human Navβ1, automated patch clamp QPatch16X

human Nav1.7, sequence (Q15858 whole entry): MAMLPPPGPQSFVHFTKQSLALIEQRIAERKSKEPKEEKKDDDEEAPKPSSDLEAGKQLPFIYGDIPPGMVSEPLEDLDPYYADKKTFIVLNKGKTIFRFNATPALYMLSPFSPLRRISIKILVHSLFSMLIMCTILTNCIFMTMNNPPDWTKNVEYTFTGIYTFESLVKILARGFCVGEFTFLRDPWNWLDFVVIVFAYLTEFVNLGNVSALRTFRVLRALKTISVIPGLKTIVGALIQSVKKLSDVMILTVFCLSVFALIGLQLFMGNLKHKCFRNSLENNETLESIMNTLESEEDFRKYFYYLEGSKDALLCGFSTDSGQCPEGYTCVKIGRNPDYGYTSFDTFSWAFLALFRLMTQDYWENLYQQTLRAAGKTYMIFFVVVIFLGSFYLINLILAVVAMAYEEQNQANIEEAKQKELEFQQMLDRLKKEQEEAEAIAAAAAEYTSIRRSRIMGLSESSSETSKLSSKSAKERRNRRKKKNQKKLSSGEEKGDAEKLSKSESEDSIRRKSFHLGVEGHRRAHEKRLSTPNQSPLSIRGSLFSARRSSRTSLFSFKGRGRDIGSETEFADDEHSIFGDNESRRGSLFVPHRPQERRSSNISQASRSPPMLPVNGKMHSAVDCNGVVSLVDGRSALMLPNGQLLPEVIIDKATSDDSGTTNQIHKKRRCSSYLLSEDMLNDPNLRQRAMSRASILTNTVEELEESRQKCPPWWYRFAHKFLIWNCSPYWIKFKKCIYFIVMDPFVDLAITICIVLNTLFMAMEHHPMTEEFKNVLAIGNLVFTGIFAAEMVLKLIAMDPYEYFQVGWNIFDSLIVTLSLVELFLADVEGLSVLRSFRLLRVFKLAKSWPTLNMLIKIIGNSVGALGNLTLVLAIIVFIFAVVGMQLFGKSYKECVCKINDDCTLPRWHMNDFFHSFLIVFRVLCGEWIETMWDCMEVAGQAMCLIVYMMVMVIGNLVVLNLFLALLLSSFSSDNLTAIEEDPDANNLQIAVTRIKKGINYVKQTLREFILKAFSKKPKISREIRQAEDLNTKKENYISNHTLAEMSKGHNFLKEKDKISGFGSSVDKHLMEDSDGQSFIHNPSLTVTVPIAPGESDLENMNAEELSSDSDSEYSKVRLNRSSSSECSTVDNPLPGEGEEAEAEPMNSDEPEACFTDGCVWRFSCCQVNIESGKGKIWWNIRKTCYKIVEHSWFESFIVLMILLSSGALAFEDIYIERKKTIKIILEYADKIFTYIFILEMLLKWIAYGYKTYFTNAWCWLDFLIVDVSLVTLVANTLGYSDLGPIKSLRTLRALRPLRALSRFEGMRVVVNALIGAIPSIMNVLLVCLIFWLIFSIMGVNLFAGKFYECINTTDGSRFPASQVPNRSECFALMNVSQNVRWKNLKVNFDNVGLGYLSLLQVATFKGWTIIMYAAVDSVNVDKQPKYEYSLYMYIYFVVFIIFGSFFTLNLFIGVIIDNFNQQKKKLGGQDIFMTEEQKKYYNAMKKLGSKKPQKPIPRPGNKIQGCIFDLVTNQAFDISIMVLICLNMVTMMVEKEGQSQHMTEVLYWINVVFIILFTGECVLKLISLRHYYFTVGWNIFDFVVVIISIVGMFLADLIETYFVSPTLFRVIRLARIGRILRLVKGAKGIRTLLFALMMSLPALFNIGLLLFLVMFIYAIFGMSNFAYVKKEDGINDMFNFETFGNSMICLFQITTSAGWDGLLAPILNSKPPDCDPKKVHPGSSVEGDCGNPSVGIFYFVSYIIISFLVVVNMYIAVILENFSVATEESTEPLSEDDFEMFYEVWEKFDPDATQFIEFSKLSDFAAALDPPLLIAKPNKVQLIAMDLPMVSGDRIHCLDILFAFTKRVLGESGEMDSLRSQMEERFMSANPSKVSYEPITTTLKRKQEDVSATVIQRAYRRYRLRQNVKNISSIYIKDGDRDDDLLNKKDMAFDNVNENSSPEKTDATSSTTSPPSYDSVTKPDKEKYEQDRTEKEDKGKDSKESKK
human Nav1.7, sequence (Q07699 19-218 partner): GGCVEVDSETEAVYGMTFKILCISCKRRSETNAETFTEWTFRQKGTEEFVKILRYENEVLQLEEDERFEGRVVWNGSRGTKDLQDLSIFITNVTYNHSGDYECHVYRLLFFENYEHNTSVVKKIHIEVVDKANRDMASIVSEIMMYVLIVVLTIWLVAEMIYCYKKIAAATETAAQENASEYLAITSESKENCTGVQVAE

IC50 [1] | IC50 [2] | Structure (SMILES)
– | < 10 µM | COc1ccc2c(c1)CC(NC(=O)c1cn3c(n1)CCC(C(F)(F)F)C3)CO2 (stereo not shown) [Example 13]
– | < 1 µM | COc1cccc(-c2c(C(=O)N[C@H]3COc4ccccc4C3)nc3n2CC(C(F)(F)F)CC3)n1 (stereo partly shown) [Example 15]
– | < 1 µM | O=C(N[C@H]1COc2ccc(Cl)cc2C1)c1nc2n(c1-c1ccccn1)CCCC2 [Example 18, (R)—N-(6-chlorochroman-3-yl)-3-(pyridin-2-yl)-5,6,7,8-tetrahydroimidazo[1,2-a]pyridine-2-carboxamide]
– | < 1 µM | O=C(N[C@H]1COc2ccccc2C1)c1cn2c(n1)CCC(C1CCCC1)C2 (stereo partly shown) [Example 24]
– | < 10 µM | O=C(N[C@H]1COc2ccccc2C1)c1cn2c(n1)CCC(NCc1ccccc1)C2 (stereo partly shown) [Example 42]
– | < 10 µM | CN1Cc2nc(C(=O)N[C@H]3COc4ccccc4C3)cn2CC1c1ccc(F)c(F)c1 (stereo partly shown) [Example 45]
– | < 10 µM | O=C(N[C@H]1COc2ccccc2C1)c1cn2c(n1)CNC(CCc1ccc(F)cc1)C2 (stereo partly shown) [Example 53]
– | < 10 µM | CN1Cc2nc(C(=O)N[C@H]3COc4ccccc4C3)cn2CC1CCc1ccc(F)cc1 (stereo partly shown) [Example 54]
– | < 10 µM | O=C(N[C@H]1COc2ccccc2C1)c1cn2c(n1)CNC(c1ccccc1)C2 (stereo partly shown) [Example 56]
– | < 10 µM | COc1cccc(-c2c(C(=O)N[C@H]3COc4ccccc4C3)nn3c2CCCC3)n1 [Example 69]
– | < 10 µM | COc1cc(C2CCn3nc(C(=O)N[C@H]4COc5ccc(C#N)cc5C4)cc3O2)ccn1 (stereo partly shown) [Example 73]
– | < 10 µM | O=C(N[C@H]1COc2ccc(CO)cc2C1)c1cc2n(n1)CCC(c1ccccc1F)O2 (stereo partly shown) [Example 82]
– | < 1 µM | C[C@H]1CCn2nc(C(=O)N[C@H]3COc4ccc(Br)cc4C3)cc2O1 [Example 88]
– | < 1 µM | C[C@@H]1CCn2nc(C(=O)N[C@H]3COc4ccc(Br)cc4C3)cc2O1 [Example 89]
– | < 1 µM | CCC1CCn2nc(C(=O)N[C@H]3COc4ccc(-c5cnc(OC)nc5)cc4C3)cc2O1 (stereo partly shown) [Example 93]
– | < 1 µM | N#Cc1ccc2c(c1)C[C@@H](NC(=O)c1cc3n(n1)CCC(COCc1ccccc1)O3)CO2 (stereo partly shown) [Example 99]
– | < 1 µM | O=C(N[C@H]1COc2ccc(Cl)cc2C1)c1cc2n(n1)CCC(COCC1CC1)O2 (stereo partly shown) [Example 106]
– | < 10 µM | N#Cc1ccc(-c2ccc3c(c2)C[C@@H](NC(=O)c2cc4n(n2)CCC(COCC2CC2)O4)CO3)cn1 (stereo partly shown) [Example 107]
– | < 1 µM | N#Cc1ccc2c(c1)C[C@@H](NC(=O)c1cc3n(n1)CCC(CSc1ccccc1)O3)CO2 (stereo partly shown) [Example 119]
– | < 10 µM | O=C(N[C@H]1COc2ccc(Cl)cc2C1)c1cc2n(n1)CCC(COc1ccncc1)O2 (stereo partly shown) [Example 120]
– | < 10 µM | CN(Cc1ccccc1)CC1CCn2nc(C(=O)N[C@H]3COc4ccc(Cl)cc4C3)cc2O1 (stereo partly shown) [Example 121]
< 1 µM | – | CC(C)(F)C1CCn2nc(C(=O)N[C@H]3COc4ccc(Cl)cc4C3)cc2O1 (stereo partly shown) [Example 166]
< 10 µM | – | CC1(C)CCn2nc(C(=O)N[C@H]3COc4ccc(-c5ccc(C#N)nc5)cc4C3)cc2O1 [Example 179]
< 10 µM | – | N#Cc1ccc2c(c1)C[C@@H](NC(=O)c1cc3n(n1)CCC1(CCC1)O3)CO2 [Example 180]
< 10 µM | – | O=C(N[C@H]1COc2ccc(C(F)(F)F)cc2C1)c1nn2c(c1-c1ccn[nH]1)OCC2 [Example 249]
< 1 µM | – | O=C(N[C@H]1COc2ccc(C(F)(F)F)cc2C1)c1nn2c(c1-c1ccn[nH]1)COCC2 [Example 259, (R)-3-(1H-pyrazol-5-yl)-N-(6-(trifluoromethyl)chroman-3-yl)-6,7-dihydro-4H-pyrazolo[5,1-c][1,4]oxazine-2-carboxamide]
< 1 µM | – | N#Cc1ccc2c(c1)C[C@@H](NC(=O)c1cc3n(n1)CCN(CCc1ccc(F)cc1)C3)CO2 [Example 269]

Continued, molecule first:

Structure (SMILES) | IC50 [1] | IC50 [2]
O=C(N[C@H]1COc2ccc(CC(F)F)cc2C1)c1cc2n(n1)CCC(COCC(F)(F)F)CO2 (single isomer, unassigned) [601 (isomer A)] | < 10 µM | –
O=C(N[C@H]1COc2ccc(C(F)(F)F)cc2C1O)c1cc2n(n1)CC(CCCOCC(F)(F)F)O2 (single isomer, unassigned) [603 (isomer A)] | < 1 µM | –
N#Cc1ccc2c(c1)C[C@@H](NC(=O)c1cc3n(n1)CC(CCCOCC(F)F)O3)CO2 (single isomer, unassigned) [604 (isomer B)] | < 10 µM | –
O=C(N[C@H]1COc2ccc(C(F)(F)F)cc2C1O)c1cc2n(n1)CC(CCCOCC(F)F)O2 (single isomer, unassigned) [610 (isomer B)] | < 10 µM | –
O=C(N[C@H]1COc2ccc(C(F)(F)F)cc2C1O)c1cc2n(n1)CC(CCCOCC(F)(F)F)O2 (single isomer, unassigned) [616 (isomer B)] | < 10 µM | –
N#Cc1ccc2c(c1)C(F)[C@@H](NC(=O)c1cc3n(n1)CCC(COCC1CC1)O3)CO2 (single isomer, unassigned) [617 (isomer B)] | < 10 µM | –
O=C(N[C@H]1COc2ccc(C(F)(F)F)cc2C1O)c1cc2n(n1)CC(CCOCC1CC1)O2 (single isomer, unassigned) [636 (isomer A)] | < 1 µM | –
O=C(N[C@H]1COc2ccc(C(F)(F)F)cc2C1O)c1cc2n(n1)CC(CSCC(F)(F)F)O2 (single isomer, unassigned) [641 (isomer A)] | < 10 µM | –
O=C(N[C@H]1COc2ccc(C(F)(F)F)cc2C1O)c1cc2n(n1)CCC(OCCOCC(F)(F)F)CO2 (single isomer, unassigned) [Example 681] | < 10 µM | –
N#Cc1ccc2c(c1)C[C@@H](NC(=O)c1cc3n(n1)C[C@H](CC1CCOCC1)O3)CO2 (single isomer, unassigned; isomer a) [577(isomer A)] | < 10 µM | –
O=C(N[C@H]1COc2ccc(CC(F)F)cc2C1)c1cc2n(n1)C[C@H](CC1CCOCC1)O2 (single isomer, unassigned; isomer a) [590(isomer A)] | < 1 µM | –
COC1c2cc(C(F)(F)F)ccc2OC[C@@H]1NC(=O)c1cc2n(n1)CCC(COCC(F)(F)F)O2 (single isomer, unassigned; isomer a) [598(isomer A)] | < 1 µM | –
O=C(NC1COc2cccc(C3CC3)c2C1)c1cn2c(n1)CCC(C(F)(F)F)C2 (stereo not shown) [Example 10] | – | < 10 µM
O=C(c1cn2c(n1)CCC(C1CCCCC1)C2)N1CCC1Cc1ccccc1 (stereo not shown) [Example 31] | – | < 1 µM
CC(C)CCC1Cn2cc(C(=O)N[C@H]3COc4ccccc4C3)nc2CN1C (stereo partly shown) [Example 50] | – | < 10 µM
CN1Cc2nc(C(=O)N3CC(Oc4cccc(C(F)(F)F)n4)C3)cn2CC1c1ccccc1 (stereo not shown) [Example 63] | – | < 10 µM

Structure (SMILES) | IC50 [1] | IC50 [2]
N#Cc1ccc2c(c1)C[C@@H](NC(=O)c1cc3n(n1)CCC(COCc1cccc(F)c1)O3)CO2 (stereo partly shown) [Example 104] | – | < 1 µM
N#Cc1ccc2c(c1)C[C@@H](NC(=O)c1cc3n(n1)CCC(COC(C(F)(F)F)C(F)(F)F)O3)CO2 (stereo partly shown) [Example 116] | – | < 1 µM
N#Cc1ccc(-c2ccc3c(c2)C[C@@H](NC(=O)c2cc4n(n2)CCC(COCC(F)(F)F)O4)CO3)cn1 (stereo partly shown) [Example 132] | – | < 10 µM
COc1ncc(-c2ccc3c(c2)C[C@@H](NC(=O)c2cc4n(n2)CCC(C(F)(F)F)O4)CO3)cn1 (stereo partly shown) [Example 176] | < 10 µM | –
O=C(N[C@H]1COc2ccc(COCC(F)(F)F)cc2C1)c1cc2n(n1)CC(C(F)(F)F)O2 (stereo partly shown) [Example 183] | < 10 µM | –
O=C(N[C@H]1COc2ccc(CC(F)(F)F)cc2C1)c1cc2n(n1)CC(COCC(F)(F)F)O2 (stereo partly shown) [Example 191] | < 1 µM | –
Cc1cnc(-c2ccc3c(c2)C[C@@H](NC(=O)c2cc4n(n2)CC(COCC(F)(F)F)O4)CO3)cn1 (stereo partly shown) [Example 193] | < 10 µM | –
O=C(N[C@H]1COc2ccc(CC(F)F)cc2C1)c1cc2n(n1)CC(CCOC(F)(F)F)O2 (stereo partly shown) [Example 210] | < 1 µM | –
O=C(N[C@H]1COc2ccc(CCOC(F)F)cc2C1)c1cc2n(n1)CC(CCOC(F)F)O2 (stereo partly shown) [Example 216] | < 1 µM | –
O=C(N[C@H]1COc2ccc(C(F)(F)F)cc2C1)c1cc2n(n1)CC(CCN1CC(F)(F)C1)O2 (stereo partly shown) [Example 235] | < 10 µM | –
O=C(N[C@H]1COc2ccc(CCOC(F)F)cc2C1)c1cc2n(n1)CC(CCN1CC(F)(F)C1)O2 (stereo partly shown) [Example 237] | < 1 µM | –
O=C(N[C@H]1COc2ccc(CCOC(F)(F)F)cc2C1)c1cc2n(n1)CC(CCN1CC(F)(F)C1)O2 (stereo partly shown) [Example 239] | < 1 µM | –
CC1(C)Cn2nc(C(=O)N[C@H]3COc4ccc(C(F)(F)F)cc4C3)c(-c3ccn[nH]3)c2O1 [Example 250] | < 10 µM | –
O=C(NC1COc2ccc(C(F)(F)F)cc2C1)c1cc2n(n1)CCN(CCC1CC1)C2 (stereo not shown) [Example 264] | < 1 µM | –
CC(C)CN1CCn2nc(C(=O)N[C@H]3COc4ccc(C#N)cc4C3)cc2C1 [Example 270] | < 10 µM | –
